According to patent US5230998A, “Method for the prescreening of drugs targeted to the V3 hypervariable loop of the HIV-1 envelope glycoprotein gp 120” (priority 1991, dated 1993):

Columns and labels:
[1] = target: T1, HIV-1 IIIB glycoprotein gp120 V3 hypervariable loop (Human immunodeficiency virus type 1 BH10, UniProt P03375); experiment: Inhibition of the reaction between HIV-1 IIIB gp120 and three distinct antibodies reacting with the V3 hypervariable loop (FIGS. 8-11); format: binding; details: 60 μg/ml, metal complexes versus uncomplexed
T1 construct: b180 also mentions the V3 loop peptide
Protocol: (§1) FIG. 8 is a bar graph depicting the inhibitory effect of chlorine6 (60 μg/ml) and metal chelates thereof on the reaction between HIV-1 IIIB glycoprotein gp120 and three distinct antibodies reacting with the V3 hypervariable loop of this glycoprotein. The antisera used were rabbit antiserum to a synthetic peptide corresponding to the V3 hypervariable loop of HIV-1 clone BH10, serum of a chimpanzee immunized with V3 hypervariable loop peptides of distinct HIV-1 isolates and monoclonal antibodies (McAb NEA 9305) raised against residues (315-329) of the V3 hypervariable loop of HIV-1 BH10 (Neurath et al (1990), Molec. Immunol., 27, 539-549).
FIG. 9 is a bar graph depicting the inhibitory effect of deuteroporphyrin IX,2-vinyl,4-hydroxymethyl (60 μg/ml) and metal chelates thereof on the reaction between HIV-1 IIIB glycoprotein gp120 and three distinct antibodies reacting with the V3 hypervarible loop of this glycoprotein. The antisera used were rabbit antiserum to a synthetic peptide corresponding to the V3 hypervariable loop of HIV-1 clone BH10, serum of a chimpanzee immunized with V3 hypervariable loop peptides of distinct HIV-1 isolates and monoclonal antibodies (McAb NEA 9305) raised against a synthetic peptide corresponding to residues (315-329) of the V3 hypervariable loop of HIV-1 BH10 (Neurath et al (1990), Molec. Immunol 27, 539-549).
as §1, with “FIG. 10” for “FIG. 8”, “of meso-tetra (4-carboxyphenyl)porphine” for “of chlorine6”, “against a synthetic peptide corresponding to” for “against”, “HIV-1 BH10.” for “HIV-1 BH10”
as §1, with “FIG. 11” for “FIG. 8”, “of uroporphyrin III” for “of chlorine6”, “against a synthetic peptide corresponding to” for “against”, “et al,” for “et al”, “Molec. lmmunol.,” for “Molec. Immunol.,”, “27, 539-549)” for “27, 539-549).”
Monoclonal antibodies (McAbs) recognizing the V3 hypervariable loop of HIV-1 BH 10 (McAb 9305 from DuPont, Wilmington, Del.) and an antiserum from a chimpanzee immunized with a mixture of V3 hypervariable loop peptides from 21 distinct HIV1 isolates (Girard, M., Kieny, M-P., Pinter, A., Barre-Sinoussi, F., Nara, P., Kolbe, H., Kusumi, K., Chaput, A., Reinhart, T., Muchmore, E, Ronco, J., Kaczorek, M., Gomard, E, Gluckman, JC., Fultz, P. N. (1991), "Immunization of Chimpanzees Confers Protection Against Challenge with Human Immunodeficiency Virus", Proc. Natl. Acad. Sci. USA, 88, 542-546) were also used for studies on the inhibitory affect of ATA on the reaction between these antibodies and gp120, using ELISA tests. These tests were carried out similarly as RIA, except that sodium merthiolate (1 mg/ml) was added to the buffers instead of NaN3, and goat antimouse IgG antibodies (Boehringer Mannheim Biochemicals, Indianapolis, Ind.) and goat anti-human IgG antibodies (Sigma, St. Louis, Mo.), respectively, each linked to horseradish peroxidase were used as second antibodies at final dilutions of 1:1,000 in phosphate-buffered saline (PBS) containing 10% goat serum and 0.1% Tween 20. […]

[2] = target: T2, HIV-1 gp120 V3 hypervariable loop (Human immunodeficiency virus type 1 group M subtype B, UniProt P03375); experiment: biochemical; format: binding; details: excess of serum proteins in medium
T2 construct: Polystyrene plates coated with recombinant gp120 and gp160, respectively; purchased American Bio-Technologies, Inc., Cambridge, Mass; host or cells: baculovirus expression system
Protocol: Wells of 96 well polystyrene plates (Immulon 2, Dynatech Laboratories, Inc., Chantilly, Va.) were coated with synthetic peptides (200 μl; 20μg/ml in 0.1 M Tris-HCl, pH 8.8) overnight at 20° C. The peptides were from the sequence of HIV-1, clone BH 10 envelope glycoproteins gp120 and gp41 (Neurath, A. R., Strick, N., and Lee, E. Y. S. (1990), "B-cell Epitope Mapping of Human Immunodeficiency virus (HIV-1) Envelope Glycoprotein with Long (19 to 36-residue) Synthetic Peptides", J. Gen. Virol., 71., 85-95) and from V3 hypervariable loops of 21 distinct HIV-1 isolates (clones) Neurath, A. R., and Strick, N., (1990), "Confronting the Hypervariability of an Immunodominant Epitope Eliciting Virus Neutralizing Antibodies from the Envelope Glycoprotein of the Human Immunodeficiency Virus Type 1 (HIV-1)", Molec. Immunol., 27, 539-549. The latter peptides corresponded to full-length V3 loops generated by disulfide bonds between N- and C- terminal cysteine residues. After washing with 0.14 M NaCl, 0.01 M Tris, 0.02% NaN3 (TS), the wells were postcoated with a mixture of bovine serum albumin (BSA) and gelatine (10 and 2.5 mg/ml, respectively) in TS. BSA was omitted from the postcoating solution for RIA tests in which antibodies to ATA were used. Polystyrene plates coated with recombinant gp120 and gp160, respectively, (500 ng/well; from American Bio-Technologies, Inc., Cambridge, Mass. and MicroGeneSys, Inc., West Haven, Conn., respectively) were also used for RIA and ELISA tests.
To define sites on gp120/gp41 reacting with ATA, the inhibitory effect of this compound was studied by RIA tests using gp120- and gp160-coated wells, respectively, and antisera (final dilutions 1:150) against synthetic peptides from the entire sequence of gp120/gp41 of HIV-1 BH 10. The preparation and biological properties of these antisera were described elsewhere (Neurath et al., (1990), J. Gen. Virol., 71, 85-95). Each of the antisera was diluted in a mixture of fetal bovine serum and goat serum (9:1) containing 0.1% Tween 20, adjusted to pH 8. ATA (final concentration 50 μg/ml) was added in one set of assays, but was omitted from a parallel set. After incubation overnight at 25° C., the plates were washed with TS. Attached rabbit IgG was detected using ^125 I-labeled anti-rabbit IgG, as described before (Neurath et al., 1990, J. Gen. Virol., 71, 85-95). Similarly, the inhibitory effect of ATA on the reaction of peptides derived from gp120/gp41 and of peptides derived from V3 hypervariable loops from gp120 of distinct HIV-1 isolates with the respective homologous anti-peptide antisera was studied. In the latter case, antisera were diluted 1:1,000 for the assays.
The inhibitory effect of ATA and of other compounds on the reaction between antibodies with predetermined specificity and gp120 (or synthetic peptides derived from it) was determined from the formula: [formula] An analogous formula was used to calculate the percentage of inhibition from optical density readings resulting from ELISA tests.
Chemicals other than ATA were screened for inhibitory activity essentially as described above. […] Chemicals with inhibitory activity established by the respective immunoassays were screened further for antiviral activity.
Commercially available ATA is a mixture of monomers and polymers of distinct molecular masses (Gonzalez et al., (1979) Biochem. Biophys. Acta, 562, 534-545); Cushman et al., (1991), J. Chem., 34, 329-337). The monomers [molecular mass (M.W.)=422.4 daltons] were separated from the polymers. ATA (20 mg/ml in the form of free acid neutralized with 0.4 M NaOH) was dialyzed against H2 O in a dialysis membrane with a molecular mass cutoff of 500 daltons.

CD4 receptor = details: literature; cited from earlier work
[3] = system: gp120 expressed on the surface of HIV-1-infected cells; details: literature; cited from earlier work
[4] = system: HIV-1 reverse transcriptase; details: literature; cited from earlier work
HIV-1 = details: literature; cited from earlier work

## O=C(O)c1ccc(-c2c3nc(c(-c4ccc(C(=O)O)cc4)c4ccc([n-]4)c(-c4ccc(C(=O)O)cc4)c4nc(c(-c5ccc(C(=O)O)cc5)c5ccc2[n-]5)C=C4)C=C3)cc1.[Co+2]
[1]
  inhibitory activity on the interaction between the V3 hypervariable loop of HIV-1-IIIB and antisera: drastically reduced inhibitory activity

## O=C(O)c1ccc(-c2c3nc(c(-c4ccc(C(=O)O)cc4)c4ccc([n-]4)c(-c4ccc(C(=O)O)cc4)c4nc(c(-c5ccc(C(=O)O)cc5)c5ccc2[n-]5)C=C4)C=C3)cc1.[Cr+2]
[1]
  inhibitory activity on the interaction between the V3 hypervariable loop of HIV-1-IIIB and antisera: drastically reduced inhibitory activity

## O=C(O)c1ccc(-c2c3nc(c(-c4ccc(C(=O)O)cc4)c4ccc([n-]4)c(-c4ccc(C(=O)O)cc4)c4nc(c(-c5ccc(C(=O)O)cc5)c5ccc2[n-]5)C=C4)C=C3)cc1.[Cu+2]
[1]
  inhibitory activity on the interaction between the V3 hypervariable loop of HIV-1-IIIB and antisera: drastically reduced inhibitory activity

## C=Cc1c(C)c2cc3nc(cc4[n-]c(cc5nc(cc1[n-]2)C(C)=C5CO)c(C)c4CCC(=O)O)C(CCC(=O)O)=C3C.[Fe+2]
[1]
  inhibitory activity on the interaction between the V3 hypervariable loop of HIV-1-IIIB and antisera: substantially lower than that of the uncomplexed substance or of its Zn derivative

## O=C(O)c1ccc(-c2c3nc(c(-c4ccc(C(=O)O)cc4)c4ccc([n-]4)c(-c4ccc(C(=O)O)cc4)c4nc(c(-c5ccc(C(=O)O)cc5)c5ccc2[n-]5)C=C4)C=C3)cc1.[Fe+2]
[1]
  inhibitory activity on the interaction between the V3 hypervariable loop of HIV-1-IIIB and antisera: drastically reduced inhibitory activity

## O=C(O)c1ccc(-c2c3nc(c(-c4ccc(C(=O)O)cc4)c4ccc([n-]4)c(-c4ccc(C(=O)O)cc4)c4nc(c(-c5ccc(C(=O)O)cc5)c5ccc2[n-]5)C=C4)C=C3)cc1.[Mn+2]
[1]
  inhibitory activity on the interaction between the V3 hypervariable loop of HIV-1-IIIB and antisera: drastically reduced inhibitory activity

## O=C(O)c1ccc(-c2c3nc(c(-c4ccc(C(=O)O)cc4)c4ccc([n-]4)c(-c4ccc(C(=O)O)cc4)c4nc(c(-c5ccc(C(=O)O)cc5)c5ccc2[n-]5)C=C4)C=C3)cc1.[Ni+2]
[1]
  inhibitory activity on the interaction between the V3 hypervariable loop of HIV-1-IIIB and antisera: drastically reduced inhibitory activity

## Cc1cc(-c2ccc(/N=N/c3ccc4c(S(=O)(=O)O)cc(S(=O)(=O)O)c(N)c4c3O)c(C)c2)ccc1/N=N/c1ccc2c(S(=O)(=O)O)cc(S(=O)(=O)O)c(N)c2c1O [substance #28, Evans Blue]
[2]
  reaction with the V3 hypervariable loop as determined by RIA (ELISA) tests: did not react with the V3 hypervariable loop
CD4 receptor
  inhibition of the interaction with CD4 receptor: inhibited the interaction of the CD4 receptor for HIV-1
[3]
  inhibition of the reaction of gp120 on infected cells with monoclonal anti-gp120 antibodies: inhibit the reaction of gp120 expressed on the surface of HIV-1-infected cells with monoclonal anti-gp120 antibodies
[4]
  inhibition of HIV-1 reverse transcriptase: inhibited the reverse transcriptase of HIV-1

## CC1=C/C(=C(\c2ccc(N)c(S(=O)(=O)[O-])c2)c2ccc(N)c(S(=O)(=O)O)c2)C=C(S(=O)(=O)[O-])C1=N.[Na+].[Na+] [substance #145, acid fuchsin]
[2]
  reaction with the V3 hypervariable loop as determined by RIA (ELISA) tests: did not react with the V3 hypervariable loop
[4]
  inhibition of HIV-1 reverse transcriptase: inhibited the reverse transcriptase of HIV-1

## Cc1ccc(C(=O)Nc2ccc(S(=O)(=O)O)c3cc(S(=O)(=O)O)cc(S(=O)(=O)O)c23)cc1NC(=O)c1cccc(NC(=O)Nc2cccc(C(=O)Nc3cc(C(=O)Nc4ccc(S(=O)(=O)O)c5cc(S(=O)(=O)O)cc(S(=O)(=O)O)c45)ccc3C)c2)c1 [suramin, reference compound]
[3]
  inhibition of the reaction of gp120 on infected cells with monoclonal anti-gp120 antibodies: inhibit the reaction of gp120 expressed on the surface of HIV-1-infected cells with monoclonal anti-gp120 antibodies
[4]
  inhibition of HIV-1 reverse transcriptase: inhibited the reverse transcriptase of HIV-1

## hemin [substance #13]
HIV-1
  inhibition of HIV-1 replication / antiviral activity: anti-HIV-1 activity

## heparin
[3]
  inhibition of the reaction of gp120 on infected cells with monoclonal anti-gp120 antibodies: inhibit the reaction of gp120 expressed on the surface of HIV-1-infected cells with monoclonal anti-gp120 antibodies

## pentosan polysulfate
[3]
  inhibition of the reaction of gp120 on infected cells with monoclonal anti-gp120 antibodies: inhibit the reaction of gp120 expressed on the surface of HIV-1-infected cells with monoclonal anti-gp120 antibodies
